This passage reports IC50 and EC50 results from patent publication US20260364080A1, “PYRAZOLO-PYRIMIDINONE COMPOUNDS FOR USE IN METHODS OF INHIBITING WEE1 A KINASE” (Acrivon Therapeutics, Inc., priority 2023, published 2026).

The target of test [1] is T1, recombinant human Wee1A kinase (Homo sapiens, UniProt P30291).
T1 construct: full length Wee1 kinase was expressed by baculovirus in insect cells; purchased Invitrogen PV3817; host or cells: insect cells (baculovirus)
In words: Wee1A kinase binding assay (LanthaScreen Eu time-resolved FRET). Particulars: 30 nM tracer 178, 5 nM Wee1A kinase, 2 nM Eu-labeled antibody; 60 minutes at room temperature; read-out: Wee1A kinase Binding IC50. Put shortly:
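Full-length, baculovirus-expressed GST-tagged Wee1A (5 nM) was mixed with 2 nM Eu-anti-GST antibody, 30 nM kinase tracer 178 and compound (1% DMSO). Buffer was 50 mM HEPES pH 7.5, 10 mM MgCl2, 1 mM EGTA, 0.01% Brij-35, incubated 60 min at room temperature. TR-FRET 665/615 nm emission ratios from duplicates were curve-fitted.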
(In TR-FRET formats the signal depends on donor and acceptor labels being close together.)

Test [2] deals with T2, Myt1 kinase (recombinant PMYT-1) (Homo sapiens, UniProt Q99640).
T2 construct: full length PMYT-1 was expressed by baculovirus in insect cells; purchased Invitrogen A30984; host or cells: insect cells (baculovirus)
T2 sequence (Q99640 1-499): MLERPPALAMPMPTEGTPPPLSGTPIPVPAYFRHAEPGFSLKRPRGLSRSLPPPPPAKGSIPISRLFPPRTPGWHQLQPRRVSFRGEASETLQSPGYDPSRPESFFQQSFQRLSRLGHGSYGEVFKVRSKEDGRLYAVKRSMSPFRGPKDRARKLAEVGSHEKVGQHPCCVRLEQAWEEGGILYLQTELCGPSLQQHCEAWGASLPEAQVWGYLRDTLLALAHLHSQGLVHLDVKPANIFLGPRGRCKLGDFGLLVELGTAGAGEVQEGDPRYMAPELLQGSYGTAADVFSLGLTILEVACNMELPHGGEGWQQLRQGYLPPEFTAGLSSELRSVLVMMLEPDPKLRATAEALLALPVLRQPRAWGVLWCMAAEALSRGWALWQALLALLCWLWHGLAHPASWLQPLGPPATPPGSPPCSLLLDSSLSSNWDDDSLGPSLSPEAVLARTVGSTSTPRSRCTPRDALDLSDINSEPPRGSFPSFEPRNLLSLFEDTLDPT
In words: Myt1 kinase binding assay (LanthaScreen Eu Kinase Binding Assay). As to conditions: 3 nM tracer 178, 2.5 nM PMYT-1, 1 nM Eu-labeled antibody; read-out: Myt1 kinase Binding IC50. Put shortly: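 Compound binding to Myt1 kinase was assessed using the LanthaScreen Eu Kinase Binding Assay. This europium-based binding format was applied to quantify how strongly each compound bound to the Myt1 enzyme, and the binding affinity was reported for each compound as an IC50 value.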

The target of test [3] is T3, Myt1 kinase (CDK1 Thr14 phosphorylation in DAOY medulloblastoma cells) (Homo sapiens, UniProt Q99640).
T3 construct: pCDK1 Thr14 AlphaLISA read-out
T3 sequence (Q99640 1-499): T2 sequence (Q99640 1-499)
The experiment in a line: AlphaLISA assay, Myt1 kinase target engagement (phospho-CDK1 Thr14) in DAOY cells. It counts as cell-based. As to conditions: 4 h treatment, read-out: CDK1 Thr14 Phosphorylation EC50. Summed up:
(§1)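 Cells seeded at 10,000 (DAOY) or 20,000 (ACHN) per well, treated 24 h later for 4 h with compound at 7–5000 nM. Lysates analysed by AlphaLISA SureFire Ultra phospho-CDK1 (Thr14) with donor/acceptor beads; EC50 from dose-response curves.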
A general note: Bead proximity is the source of the signal in Alpha formats.

Test [4] concerns the target T4, Wee1A kinase (CDK1 Tyr15 phosphorylation in ACHN renal cell carcinoma cells) (Homo sapiens, UniProt P30291).
T4 construct: pCDK1 Tyr15 immunofluorescence read-out
The experiment in a line: High-content imaging of pCdk1 Y15, Wee1A kinase target engagement in ACHN cells. It counts as cell-based. As to conditions: 4 h treatment, nuclear positivity for pCdk1 Y15 vs DMSO control, read-out: CDK1 Tyr15 Phosphorylation EC50. Put shortly: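 EC50 values come from the per-well fraction of cells with nuclear pCdk1 Y15 staining, normalised to DMSO control, by automated immunofluorescence imaging. Cells were ACHN renal carcinoma, treated 4 h with compound at 7–5,000 nM or 0.3–200 nM.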

The next test deals with ACHN cells. In words: Cell Titer Glo viability assay, ACHN cells. It counts as cell-based. Particulars: Homo sapiens, 144 h, absolute EC50. Summed up:
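Cells grown in MEM with 10% FCS were seeded at 500 (A427), 400 (ACHN) or 250 (DAOY) per well and treated the next day with compound at 17 to 10 000 nM. Viability relative to untreated control was read at 144 h by CellTiter-Glo 2.0.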

In a further test the test system is DAOY cells. The experiment in a line: Cell Titer Glo viability assay, DAOY cells. As to conditions: Homo sapiens, 144 h, absolute EC50. Format: cell-based. The protocol:
Each of an ACHN renal cell carcinoma cell line (ATCC) and a DAOY medulloblastoma cell line, and an A427 lung cancer line were cultured in Minimum Essential Medium Eagle supplemented with 10% fetal calf serum (Sigma), 1% Penicillin-Streptomycin and 10 mM HEPES buffer (HyClone). Cell cultures were kept in a humidified incubator at 37 °C and 5% CO2. Cells were routinely tested for Mycoplasma contamination.
ACHN cells, DAOY cells, or A427 cells were seeded at a density of 400, 250, or 500 cells per well respectively, in tissue culture treated 384 well plates (Corning Costar). After overnight incubation, cells were treated with drugs at concentrations ranging from 17 to 10 000 nM. Viability compared to untreated control was assessed at 144 h using Cell Titer Glo assay 2.0 (Promega). […] “NT” means the compounds was not tested in the indicated cells.
(In ATP-based viability assays light output follows the ATP content of the culture.)

Test [5] has as its target T5, Myt1 kinase (CDK1 Thr14 phosphorylation in ACHN renal cell carcinoma cells) (Homo sapiens, UniProt Q99640).
T5 construct: pCDK1 Thr14 AlphaLISA read-out
T5 sequence (Q99640 1-499): T2 sequence (Q99640 1-499)
In words: AlphaLISA assay, Myt1 kinase target engagement (phospho-CDK1 Thr14) in ACHN cells. It counts as cell-based. As to conditions: ACHN cells (marked *); 4 h treatment. Put shortly: as §1

T1 sequence (P30291 whole entry): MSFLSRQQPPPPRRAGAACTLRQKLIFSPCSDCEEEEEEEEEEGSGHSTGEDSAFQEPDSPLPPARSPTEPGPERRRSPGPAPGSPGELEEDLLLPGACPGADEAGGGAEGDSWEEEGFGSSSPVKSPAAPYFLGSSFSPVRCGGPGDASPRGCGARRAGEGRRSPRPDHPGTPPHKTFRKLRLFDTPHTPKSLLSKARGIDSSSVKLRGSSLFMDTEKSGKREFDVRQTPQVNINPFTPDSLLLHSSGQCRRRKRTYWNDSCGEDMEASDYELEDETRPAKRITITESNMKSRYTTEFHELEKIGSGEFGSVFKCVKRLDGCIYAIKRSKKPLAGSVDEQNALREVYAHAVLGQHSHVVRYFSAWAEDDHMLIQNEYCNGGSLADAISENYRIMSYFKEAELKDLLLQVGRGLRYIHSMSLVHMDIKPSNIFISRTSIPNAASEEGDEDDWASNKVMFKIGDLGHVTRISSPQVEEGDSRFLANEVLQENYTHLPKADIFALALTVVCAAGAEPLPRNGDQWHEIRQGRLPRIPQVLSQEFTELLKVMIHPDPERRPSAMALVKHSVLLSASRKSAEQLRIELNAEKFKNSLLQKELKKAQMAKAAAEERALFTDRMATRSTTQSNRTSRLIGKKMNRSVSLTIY
T4 sequence (P30291 whole entry): as above

As a reminder, the IC50 is the concentration that inhibits the measured activity by half. One may read the EC50 as the concentration giving half of the maximal effect. Take `C=CCn1c(=O)c2cnc(Nc3cc(C)cc(F)c3)nc2n1-c1cccc(OC2CCN(C)CC2)n1` [Compound 205, 6-[(3-fluoro-5-methylphenyl)amino]-1-{6-[(1-methylpiperidin-4-yl)oxy]pyridin-2-yl}-2-(prop-2-en-1-yl)-1H,2H,3H-pyrazolo[3,4-d]pyrimidin-3-one]: the IC50 in test [1] is less than 0.01 µM; in test [2], 0.02 to 0.1 µM. Also, the EC50 in test [3] is 0.2 to 0.5 µM; in test [4], less than 0.1 µM; with ACHN cells, no more than 0.1 µM; with DAOY cells it was 0.1 to 0.5 µM.
For the compound `C=CCn1c(=O)c2cnc(Nc3ccc4cccnc4c3)nc2n1-c1cccc(OC2CCN(C)CC2)n1` [Compound 335, 2-allyl-1-[6-(1-methyl-4-piperidyloxy)-2-pyridyl]-6-(7-quinolylamino)-1,2-dihydro-3H-1,2,5,7-tetraazainden-3-one], the figures for the IC50 in test [1] and in test [2] were less than 0.01 µM and less than 0.02 µM, respectively. Further, the EC50 was 0.2 to 0.5 µM in test [3], less than 0.1 µM in test [4], no more than 0.1 µM in the test on ACHN cells and no more than 0.1 µM in the test on DAOY cells.
Regarding `C=CCn1c(=O)c2cnc(Nc3ccc4ccoc4c3)nc2n1-c1cccc(OC2CCN(C)CC2)n1` [Compound 308, 2-allyl-6-(1-benzofuran-6-ylamino)-1-[6-(1-methyl-4-piperidyloxy)-2-pyridyl]-1,2-dihydro-3H-1,2,5,7-tetraazainden-3-one], the IC50 in test [1] was less than 0.01 µM; in test [2], less than 0.02 µM. Besides, the EC50 in test [3] was less than 0.2 µM; in test [4] it was less than 0.1 µM; with ACHN cells, no more than 0.1 µM; with DAOY cells, no more than 0.1 µM.
For the compound `C=CCn1c(=O)c2cnc(Nc3ccnc(C)c3)nc2n1-c1cccc(OC2CCN(C)CC2)n1` [Compound 112, 1-{6-[(1-methylpiperidin-4-yl)oxy]pyridin-2-yl}-6-[(2-methylpyridin-4-yl)amino]-2-(prop-2-en-1-yl)-1H,2H,3H-pyrazolo[3,4-d]pyrimidin-3-one], the IC50 is less than 0.01 µM in test [1] and 0.02 to 0.1 µM in test [2]. For the same compound, the EC50 in test [3] was 0.2 to 0.5 µM; in test [4] it was less than 0.1 µM; with ACHN cells, no more than 0.1 µM; with DAOY cells, 0.1 to 0.5 µM.
On to `C=CCn1c(=O)c2cnc(Nc3ccc4nc(C)oc4c3)nc2n1-c1cccc(OC2CCN(C)CC2)n1` [Compound 311, 2-allyl-6-(2-methyl-1,3-benzoxazol-6-ylamino)-1-[6-(1-methyl-4-piperidyloxy)-2-pyridyl]-1,2-dihydro-3H-1,2,5,7-tetraazainden-3-one], for which the results for the IC50 in test [1] and in test [2] were less than 0.01 µM and 0.02 to 0.1 µM, respectively. The EC50 is less than 0.2 µM in test [3], less than 0.1 µM in test [4], no more than 0.1 µM in the test on ACHN cells and no more than 0.1 µM in the test with DAOY cells.
Consider `C=CCn1c(=O)c2cnc(Nc3ccc(C)nc3)nc2n1-c1cccc(OC2CCN(C)CC2)n1` [Compound 197, 2-allyl-1-[6-(1-methyl-4-piperidyloxy)-2-pyridyl]-6-(6-methyl-3-pyridylamino)-1,2-dihydro-3H-1,2,5,7-tetraazainden-3-one], for which the IC50 is less than 0.01 µM in test [1] and 0.02 to 0.1 µM in test [2]. Besides, the EC50 in test [3] is 0.5 to 1 µM; in test [4], less than 0.1 µM; in the test on ACHN cells, no more than 0.1 µM; with DAOY cells, no more than 0.1 µM.
As for `C=CCn1c(=O)c2cnc(Nc3cccc(C)c3)nc2n1-c1cccc(OC2CCN(C)CC2)n1` [Compound 191, 2-allyl-1-[6-(1-methyl-4-piperidyloxy)-2-pyridyl]-6-m-toluidino-1,2-dihydro-3H-1,2,5,7-tetraazainden-3-one], the figures for the IC50 in test [1] and in test [2] were less than 0.01 µM and less than 0.02 µM, respectively. In addition, the EC50 in test [3] is 0.2 to 0.5 µM; in test [4], less than 0.1 µM; in the test on ACHN cells, no more than 0.1 µM; in the test on DAOY cells, no more than 0.1 µM.
As to `C=CCn1c(=O)c2cnc(Nc3ccc(F)cc3)nc2n1-c1cccc(OC2CCN(C)CC2)n1` [Compound 207, 6-[(4-fluorophenyl)amino]-1-{6-[(1-methylpiperidin-4-yl)oxy]pyridin-2-yl}-2-(prop-2-en-1-yl)-1H,2H,3H-pyrazolo[3,4-d]pyrimidin-3-one], the IC50 is less than 0.01 µM in test [1] and 0.02 to 0.1 µM in test [2]. In addition, the EC50 in test [3] is 0.5 to 1 µM; in test [4], less than 0.1 µM; in the test on ACHN cells, no more than 0.1 µM; in the test with DAOY cells it was no more than 0.1 µM.
Turning to `C=CCn1c(=O)c2cnc(Nc3ccc4c(cnn4CCCF)c3)nc2n1-c1cccc(OC2CCNCC2)n1` [Compound 397, 2-allyl-6-((1-(3-fluoropropyl)-1H-indazol-5-yl)amino)-1-(6-(piperidin-4-yloxy)pyridin-2-yl)-1,2-dihydro-3H-pyrazolo[3,4-d]pyrimidin-3-one], the IC50 in test [1] is less than 0.01 µM; in test [2], 0.02 to 0.1 µM. Besides, the EC50 in test [5] was 0.5 to 1 µM; in test [4], less than 0.1 µM; in the test with ACHN cells it was no more than 0.1 µM.
Take `C=CCn1c(=O)c2cnc(Nc3ccc4c(cnn4CCC)c3)nc2n1-c1cccc(OC2CCN(C)CC2)n1` [Compound 385, 2-allyl-1-[6-(1-methyl-4-piperidyloxy)-2-pyridyl]-6-(1-propyl-1H-indazol-5-ylamino)-1,2-dihydro-3H-1,2,5,7-tetraazainden-3-one]: the results for the half-inhibitory concentration (IC50) in test [1] and in test [2] were less than 0.01 µM and less than 0.02 µM, respectively. Moreover, the EC50 in test [5] was less than 0.2 µM; in test [4], less than 0.1 µM; in the test with ACHN cells, no more than 0.1 µM.
For `C=CCn1c(=O)c2cnc(Nc3ccc4c(cnn4C)c3)nc2n1-c1cccc(O[C@@H]2CCN(C)[C@@H](C)C2)n1` (stereo in doubt) [Compound 403, rel-2-allyl-1-(6-(((2R,4S)-1,2-dimethylpiperidin-4-yl)oxy)pyridin-2-yl)-6-((1-methyl-1H-indazol-5-yl)amino)-1,2-dihydro-3H-pyrazolo[3,4-d]pyrimidin-3-one], in that order: less than 0.01 µM, 0.02 to 0.1 µM, less than 0.2 µM, less than 0.1 µM and no more than 0.1 µM.
`[2H]C([2H])([2H])N1CCC(Oc2cccc(-n3c4nc(Nc5ccc6c(cnn6C)c5)ncc4c(=O)n3CC=C)n2)CC1` [Compound 281, 2-allyl-6-((1-methyl-1H-indazol-5-yl)amino)-1-(6-((1-(methyl-d3)piperidin-4-yl)oxy)pyridin-2-yl)-1,2-dihydro-3H-pyrazolo[3,4-d]pyrimidin-3-one]: the IC50 in test [1] is less than 0.01 µM; in test [2] it was 0.02 to 0.1 µM. The EC50 in test [5] was less than 0.2 µM; in test [4], less than 0.1 µM; in the test on ACHN cells, no more than 0.1 µM.
